Measurements reported in patent publication US4351822A, “Quantitative testing for vitamin B12” (University Patents, Inc., priority 1979, dated 1982).

Key:
[1] = target: Human intrinsic factor (Human IF) (Homo sapiens, UniProt P27352); test: Radioisotope dilution (RID) radiobinding assay for vitamin B12, Human IF binder; type: binding; conditions: 500 pg added to human serum in the dark, 15 min incubation, standard extraction
Protocol: (§1) Each of the RID assays referred to herein utilized the components referred to above. That is, components A, B, C, etc. or the buffer, albumin, and salt, respectively, etc. were added in the order, from left to right, shown in Table 1.
(§2) After the addition of ^57 Co-B12 the components are mixed thoroughly to mix both the naturally occurring B12 and the radioisotope B12 to make them compete and equally available to react with the binder. After the addition of the binder, H, the components were again mixed thoroughly, and then incubated for 45 minutes at about 37° C. Charcoal was then added to the incubated mixture and the components again mixed thoroughly and incubated for another 5 minutes at room temperature. This was followed by centrifuging at 2000×g at 4° C. for 30 minutes. Then 1000 ul of the resulting supernatant liquid is pipetetted from the sample and a determination of the amount of ^57 Co-B12 present is made. The amount of ^57 Co-B12 is indicative of the amount of natural B12 in the tested sample, with lesser amounts of ^57 Co-B12 being indicative of greater amounts of natural vitamin B12 in the sample.
(§3) (1) The values in tubes 3 and 4, the "blank" tubes without binder are averaged and subtracted from all other tubes starting with tube 5.
(§4) (2) The background radiation is subtracted from tubes 1 and 2 and these values are averaged.
(§5) (3) Tubes 5 and 6 are averaged. This value should be at least 15% below the average value for tubes 1 and 2 to insure that all of the binder is saturated in the presence of (^57 Co) B12 alone.
(§6) (4) Values for each tube beginning with tube 7 are divided by the average of tubes 5 and 6 to give values for "% trace binding."
(§7) (5) Percent trace binding for tubes 7-14 are used to obtain a standard curve. We plot % trace binding on the ordinate of logit-log paper versus pg vitamin B12 on the log scale.
(§8) (6) The amount of vitamin B12 in unknown samples is determined by interpolation from the standard curve or data of % trace binding versus pg vitamin B12. […]

[2] = target: T1, Human R protein (Human R) (Homo sapiens, UniProt P20061); test: Radioisotope dilution (RID) radiobinding assay for vitamin B12, Human R binder; type: binding; conditions: 500 pg added to human serum in the dark, 15 min incubation, standard extraction
T1 construct: from tissue; host or cells: human saliva
T1 sequence (P20061 24-433): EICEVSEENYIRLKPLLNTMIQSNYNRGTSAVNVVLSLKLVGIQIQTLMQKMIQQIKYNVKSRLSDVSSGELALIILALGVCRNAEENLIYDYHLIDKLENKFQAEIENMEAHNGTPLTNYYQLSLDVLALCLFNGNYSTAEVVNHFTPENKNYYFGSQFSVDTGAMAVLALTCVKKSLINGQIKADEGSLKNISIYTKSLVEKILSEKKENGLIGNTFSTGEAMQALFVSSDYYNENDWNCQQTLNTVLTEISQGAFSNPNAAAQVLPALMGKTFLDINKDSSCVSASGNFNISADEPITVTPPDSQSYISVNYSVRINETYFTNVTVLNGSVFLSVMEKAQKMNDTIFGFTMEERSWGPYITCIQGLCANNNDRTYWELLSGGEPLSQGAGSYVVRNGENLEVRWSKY
Protocol: as §1, §2, §3, §4, §5, §6, §7, §8

Sequence of Human intrinsic factor (Human IF) (P27352 19-417): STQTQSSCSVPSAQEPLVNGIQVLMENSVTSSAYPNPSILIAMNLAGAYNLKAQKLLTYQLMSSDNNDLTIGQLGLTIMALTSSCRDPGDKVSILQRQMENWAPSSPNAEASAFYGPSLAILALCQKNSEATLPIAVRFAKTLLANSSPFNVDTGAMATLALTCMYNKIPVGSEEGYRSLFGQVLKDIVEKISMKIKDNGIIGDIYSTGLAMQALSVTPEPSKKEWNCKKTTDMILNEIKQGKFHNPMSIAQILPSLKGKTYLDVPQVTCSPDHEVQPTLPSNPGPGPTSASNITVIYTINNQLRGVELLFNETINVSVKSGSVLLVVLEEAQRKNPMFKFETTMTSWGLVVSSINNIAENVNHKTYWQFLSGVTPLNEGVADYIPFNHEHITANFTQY

Compound	increase in the apparent amount of vitamin B12, RID with human IF protein [1]	increase in the apparent amount of vitamin B12, RID with human R protein [2]
CH3 -B12	about 500 pg	about 500 pg
C/C1=C2/[N-]C([C@H](CC(N)=O)[C@@]2(C)CCC(=O)NC[C@@H](C)OP(=O)([O-])O[C@H]2[C@@H](O)[C@@H](n3cnc4cc(C)c(C)cc43)O[C@@H]2CO)[C@]2(C)N=C(/C(C)=C3N=C(/C=C4N=C1[C@@H](CCC(N)=O)C\4(C)C)[C@@H](CCC(N)=O)[C@]\3(C)CC(N)=O)[C@@H](CCC(N)=O)[C@]2(C)CC(N)=O.[CH2-][C@H]1O[C@@H](n2cnc3c(N)ncnc32)[C@@H](O)[C@@H]1O.[Co+3] [adenosyl-B12]	about 500 pg	about 500 pg
C/C1=C2/[N-][C@H]([C@H](CC(N)=O)[C@@]2(C)CCC(=O)NC[C@@H](C)OP(=O)([O-])O[C@H]2[C@@H](O)[C@@H](n3cnc4cc(C)c(C)cc43)O[C@@H]2CO)[C@]2(C)N=C(/C(C)=C3N=C(/C=C4N=C1[C@@H](CCC(N)=O)C\4(C)C)[C@@H](CCC(N)=O)[C@]\3(C)CC(N)=O)[C@@H](CCC(N)=O)[C@]2(C)CC(N)=O.[Co+3].[OH-] [OH-B12]	about 500 pg	about 500 pg
